One test concerns the target T1, human GlyT1c transporter (Homo sapiens, UniProt P48067).
T1 construct: expressed in transfected cells; host or cells: CHO cells (recombinant; line hGlyT1c_5_CHO is named for the uptake assay)
T1 sequence (P48067 1-706): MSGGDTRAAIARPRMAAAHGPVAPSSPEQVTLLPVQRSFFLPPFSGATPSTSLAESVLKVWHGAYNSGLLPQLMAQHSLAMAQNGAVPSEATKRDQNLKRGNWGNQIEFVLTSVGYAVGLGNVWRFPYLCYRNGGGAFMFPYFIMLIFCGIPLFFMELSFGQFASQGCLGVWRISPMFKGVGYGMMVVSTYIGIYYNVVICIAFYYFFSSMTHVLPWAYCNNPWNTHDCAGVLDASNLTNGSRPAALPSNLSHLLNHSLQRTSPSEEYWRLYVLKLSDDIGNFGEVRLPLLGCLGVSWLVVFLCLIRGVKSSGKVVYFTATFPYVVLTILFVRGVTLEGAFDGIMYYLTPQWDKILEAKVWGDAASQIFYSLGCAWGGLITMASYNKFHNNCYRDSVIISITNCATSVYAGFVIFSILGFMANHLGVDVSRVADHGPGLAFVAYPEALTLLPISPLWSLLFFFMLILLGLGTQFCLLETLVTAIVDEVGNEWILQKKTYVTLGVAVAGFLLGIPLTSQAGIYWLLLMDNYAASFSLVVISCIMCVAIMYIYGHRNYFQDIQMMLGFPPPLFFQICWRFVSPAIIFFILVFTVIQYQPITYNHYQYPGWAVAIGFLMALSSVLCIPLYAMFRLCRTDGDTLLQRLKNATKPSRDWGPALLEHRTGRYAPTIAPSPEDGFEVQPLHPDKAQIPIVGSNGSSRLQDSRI
Put plainly: Radioligand binding assay using recombinant CHO cell membranes expressing human GlyT1. The following applies: radioligand binding to human GlyT1c transporter-expressing membranes. From the text:
2. Radioligand binding assays using recombinant CHO cell membranes expressing human GlyT1: […]
With `CCCCOC(=O)N[C@H]1CN(S(=O)(=O)c2cn(C)cn2)C[C@@H]1c1ccccc1` [Example 544, butyl {(3R,4S)-1-[(1-methyl-1H-imidazol-4-yl)sulfonyl]-4-phenylpyrrolidin-3-yl}carbamate], the inhibition constant (Ki) is not above 10000 nM.

For the compound `Cn1cnc(S(=O)(=O)N2C[C@@H](Nc3ccc(Cl)cc3)[C@H](c3ccccc3)C2)c1` (relative stereo) [Example 75, trans-N-(4-chlorophenyl)-1-[(1-methyl-1H-imidazol-4-yl)sulfonyl]-4-phenylpyrrolidin-3-amine], the inhibition constant Ki was not above 1000 nM.

Regarding `Cn1cnc(S(=O)(=O)N2C[C@@H](NC(=O)c3cccc(C(F)(F)F)c3Cl)[C@H](c3cccc(Cl)c3)C2)c1` (relative stereo) [Example 56, 2-chloro-N-{trans-4-(3-chlorophenyl)-1-[(1-methyl-1H-imidazol-4-yl)sulfonyl]pyrrolidin-3-yl}-3-(trifluoromethyl)benzamide], the Ki is not above 1000 nM. On the same count and under the same terms, next, `O=C1Cc2cc(S(=O)(=O)N3CC(Nc4ccc(F)c(F)c4)C(c4ccccc4)C3)ccc2N1` (stereo not drawn) [Example 507, 5-({3-[(3,4-difluorophenyl)amino]-4-phenylpyrrolidin-1-yl}sulfonyl)-1,3-dihydro-2H-indol-2-one]: not above 10000 nM. Turning to `Cn1cnc(S(=O)(=O)N2C[C@@H]([C@@H]3CCCOC3)[C@H](Nc3ccc(F)c(OC(F)(F)F)c3)C2)c1` (mixture of isomers) [Example 788, Trans-N-[4-fluoro-3-(trifluoromethoxy)phenyl]-1-[(1-methyl-1H-imidazol-4-yl)sulfonyl]-4-[(3S)-tetrahydro-2H-pyran-3-yl]pyrrolidin-3-amine], the Ki is not above 1000 nM. On to `Cc1cc(N[C@H]2CN(S(=O)(=O)c3cn(C)cn3)C[C@@H]2c2ccc(F)cc2)ccc1C(F)(F)F` [Example 676, (3R,4S)-4-(4-fluorophenyl)-1-[(1-methyl-1H-imidazol-4-yl)sulfonyl]-N-[3-methyl-4-(trifluoromethyl)phenyl]pyrrolidin-3-amine], for which the inhibition constant Ki was not above 1000 nM. Same read-out and setting: as for `Cn1cnc(S(=O)(=O)N2C[C@@H](NCc3ccccc3Cl)[C@H](c3ccc(F)cc3)C2)c1` (relative stereo) [Example 260, trans-N-(2-chlorobenzyl)-4-(4-fluorophenyl)-1-[(1-methyl-1H-imidazol-4-yl)sulfonyl]pyrrolidin-3-amine], the figure is not above 100 nM; as for `Cn1cnc(S(=O)(=O)N2C[C@H](NC(=O)CCCC(C)(F)F)[C@@H](c3ccc(F)cc3)C2)c1` [Example 735, 5,5-difluoro-N-{(3R,4S)-4-(4-fluorophenyl)-1-[(1-methyl-1H-imidazol-4-yl)sulfonyl]pyrrolidin-3-yl}hexanamide], not above 10000 nM.

In the case of `Cn1cnc(S(=O)(=O)N2C[C@@H](Nc3cncc(C(F)(F)F)c3)[C@H](c3cccc(F)c3)C2)c1` (relative stereo) [Example 196, N-{trans-4-(3-fluorophenyl)-1-[(1-methyl-1H-imidazol-4-yl)sulfonyl]pyrrolidin-3-yl}-5-(trifluoromethyl)pyridin-3-amine], the Ki was not above 10000 nM. Take `CCOCCNC(=O)[C@@H]1CN(S(=O)(=O)c2cn(C)cn2)C[C@H]1c1ccc(F)cc1` [Example 584, (3S,4R)-N-(2-ethoxyethyl)-4-(4-fluorophenyl)-1-[(1-methyl-1H-imidazol-4-yl)sulfonyl]pyrrolidine-3-carboxamide]: the Ki is not above 10000 nM. On the same count and under the same terms, as for `Cn1cnc(S(=O)(=O)N2C[C@@H](NC(=O)c3ccc(C(F)(F)F)cc3)[C@H](c3ccc(F)cc3)C2)c1` (relative stereo) [Example 64, N-{trans-4-(4-fluorophenyl)-1-[(1-methyl-1H-imidazol-4-yl)sulfonyl]pyrrolidin-3-yl}-4-(trifluoromethyl)benzamide], the figure is not above 100 nM; as for `Cn1cnc(S(=O)(=O)N2C[C@H](Nc3ccc(Cl)c(OC(F)(F)F)c3)[C@@H](c3ccc(F)cc3)C2)c1` [Example 585, (3R,4S)-N-[4-chloro-3-(trifluoromethoxy)phenyl]-4-(4-fluorophenyl)-1-[(1-methyl-1H-imidazol-4-yl)sulfonyl]pyrrolidin-3-amine], not above 100 nM. On the same count and under the same terms, next, `O=S(=O)(c1ccc(C(F)(F)F)nc1)N1CC(Nc2ccc(F)c(F)c2)C(c2ccccc2)C1` (stereo not drawn) [Example 500, N-(3,4-difluorophenyl)-4-phenyl-1-{[6-(trifluoromethyl)pyridin-3-yl]sulfonyl}pyrrolidin-3-amino]: not above 10000 nM. On the same count and under the same terms, as for `Cn1cnc(S(=O)(=O)N2C[C@@H](Nc3ccc(Cl)c(OC(F)(F)F)c3)[C@H](c3ccccc3)C2)c1` (relative stereo) [Example 299, trans-N-[4-chloro-3-(trifluoromethoxy)phenyl]-1-[(1-methyl-1H-imidazol-4-yl)sulfonyl]-4-phenylpyrrolidin-3-amine], the figure is not above 1000 nM. On to `Cn1cnc(S(=O)(=O)N2C[C@@H](C(=O)NCc3cc(C(F)(F)F)ccn3)[C@H](c3ccc(F)cc3)C2)c1` (relative stereo) [Example 635, Trans-4-(4-fluorophenyl)-1-[(1-methyl-1H-imidazol-4-yl)sulfonyl]-N-{[4-(trifluoromethyl)pyridin-2-yl]methyl}pyrrolidine-3-carboxamide], for which the Ki is not above 1000 nM. On the same count and under the same terms, next, `Cn1cnc(S(=O)(=O)N2C[C@@H](NCc3ccc(F)cc3)[C@H](c3ccc(F)cc3)C2)c1` (relative stereo) [Example 156, trans-N-(4-fluorobenzyl)-4-(4-fluorophenyl)-1-[(1-methyl-1H-imidazol-4-yl)sulfonyl]pyrrolidin-3-amine]: not above 100 nM; `CC(C)c1cccc(N[C@@H]2CN(S(=O)(=O)c3cn(C)cn3)C[C@H]2c2ccc(F)cc2)c1` (relative stereo) [Example 170, trans-4-(4-fluorophenyl)-1-[(1-methyl-1H-imidazol-4-yl)sulfonyl]-N-[3-(propan-2-yl)phenyl]pyrrolidin-3-amine]: not above 100 nM. On the same count and under the same terms, next, `Cn1cnc(S(=O)(=O)N2C[C@@H](Nc3cccc(Cl)c3)[C@H](c3ccccc3)C2)c1` (relative stereo) [Example 74, trans-N-(3-chlorophenyl)-1-[(1-methyl-1H-imidazol-4-yl)sulfonyl]-4-phenylpyrrolidin-3-amine]: not above 100 nM.

For `Cn1cnc(S(=O)(=O)N2C[C@@H](NCc3cccc(C(F)(F)F)c3Cl)[C@H](c3ccc(F)cc3)C2)c1` (relative stereo) [Example 149, trans-N-[2-chloro-3-(trifluoromethyl)benzyl]-4-(4-fluorophenyl)-1-[(1-methyl-1H-imidazol-4-yl)sulfonyl]pyrrolidin-3-amine], the Ki was not above 100 nM.

Still in this test, the particulars now being: radioligand binding, recombinant CHO cell membranes expressing human GlyT1c.
On to `Cn1cc(S(=O)(=O)N2C[C@@H](Nc3cccc(OCC(F)(F)F)c3)[C@H](c3ccc(F)cc3)C2)nn1` (relative stereo) [Example 836, trans-4-(4-fluorophenyl)-1-[(1-methyl-1H-1,2,3-triazol-4-yl)sulfonyl]-N-[3-(2,2,2-trifluoroethoxy)phenyl]pyrrolidin-3-amine], for which the Ki is not above 10 nM. With `Cn1cnc(S(=O)(=O)N2C[C@@H](Nc3ccc(F)c(C(F)(F)F)c3)[C@H](C3CCCCO3)C2)c1` (relative stereo) [Example 846, Trans-N-[4-fluoro-3-(trifluoromethyl)phenyl]-1-[(1-methyl-1H-imidazol-4-yl)sulfonyl]-4-(tetrahydro-2H-pyran-2-yl)pyrrolidin-3-amine], the Ki is not above 100 nM.

As a reminder, the Ki is a dissociation constant, usually derived from enzyme kinetics or from competition with a known ligand.

The record behind these values is patent EP2970215B1, “PYRROLIDINE DERIVATIVES, PHARMACEUTICAL COMPOSITIONS CONTAINING THEM, AND THEIR USE IN THERAPY” (AbbVie Deutschland GmbH & Co. KG, priority 2013, dated 2014).
